One test relates to MIAPACA2 cells. Nature of the test: MTT cell proliferation assay in MIAPACA2 cells. In kind it is cell-based. Conditions: 6 days, FIG. 11; for proliferation of MIAPACA2 cells: 0.01, 0.03, 0.1, 0.5, 1, 5 and 10 μM. How it is done:
Assessment of the cell proliferation effects of WDR5 degraders XF056-132, XF056-173 and XF067-67 in MIAPACA2 cells (FIG. 11). MIAPACA2 cells were treated with DMSO or indicated compounds at 0.01 μM, 0.03 μM, 0.1 μM, 0.5 μM, 1 μM, 5 μM, and 10 μM for 6 days. MTT assay was used for detecting cell proliferation effects.
(§1) MIAPACA2 and Hela cells were cultured in DMEM supplemented with 10% FBS and 1% Penicillin/Streptomycin.
For orientation: Formazan colour is commonly taken as a measure of viable cells.

The target in test [1] is T1, WDR5 (Homo sapiens, UniProt P61964). Kind of test: Screening of putative WDR5 degraders by Western blot in MV4;11 and/or MIAPACA2 cells. It is filed as cell-based. The settings on record: summary of screening, FIGS. 6-10. The arrangement: After WDR5 degrader treatment, cells were collected and lysed; endogenous in cells; host or cells: MV4;11 and/or MIAPACA2. Put shortly:
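MV4;11 (1×10^6/well) or MIAPACA2 (1×10^5/well) cells treated 18 h with compound at paired doses between 0.1 and 10 μM, DMSO as control. Total lysates immunoblotted for WDR5 with vinculin, tubulin or GAPDH loading controls; fluorescent secondary detection.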
Background: In western blotting, separated proteins are transferred to a membrane and probed.

Test [2] has as its target T1, WDR5. Nature of the test: Western blot of WDR5 protein levels in MIAPACA2 cells. The arrangement: After WDR5 degrader treatment, cells were collected and lysed; endogenous in cells; host or cells: MV4;11 and/or MIAPACA2. In kind it is cell-based. Conditions: 18 h. How it is done: MIAPACA2 cells were treated with DMSO or indicated compounds at 0.1 μM, 0.5 μM, 1 μM, 5 μM, and 10 μM for 18 hours.
MIAPACA2 cells were treated with DMSO or indicated compounds at 0.5 μM and 1.0 μM for 18 hours.
MIAPACA2 cells were treated with DMSO or indicated compounds at 0.1 μM and 0.5 μM for 18 hours.
MIAPACA2 cells were treated with DMSO or indicated compounds at 0.5 μM and 1.0 μM or at 1.0 μM and 10 μM for 18 hours.
as §1
WDR5 degraders were dissolved in DMSO and DMSO with no degraders was used as the control. 1×10^6 MV4;11 cells or 1×10^5 MIAPACA2 or 2×10^5 Hela cells were seeded in 2 mL medium for each well in […].
For prescreening of all the compounds, each test compound was added to the medium at indicated concentrations. After 18 h treatment, cells were collected.
After WDR5 degrader treatment, cells were collected and lysed. Total cell lysates were used for western blot. The following primary antibodies were used: WDR5 (Santa Cruz), vinculin (Cell Signaling Technology), tubulin (Cell Signaling Technology), GAPDH (Santa Cruz). Blots were imaged using fluorescence-labeled secondary antibodies on ChemiDoc™ Imaging Systems.

In test [3] the target is T1, WDR5. The settings on record: MV4;11 cells, summary of FIGS. 1-3.
Protocol: MV4;11 cells were treated with DMSO or indicated compounds at 1 μM and 10 μM for 18 hours.
MV4;11 cells were treated with DMSO or indicated compounds at 0.1 μM, 0.5 μM, 1 μM, 5 μM, and 10 μM for 18 hours.
MV4;11 cells were treated with DMSO or indicated compounds at a fixed concentration of 0.5 μM for 1, 2, 4, 8, 16, or 24 hours.
MV4;11 cells were treated with DMSO or indicated compounds at 0.1 μM and 0.5 μM for 18 hours. […] MV4;11 cells were treated with DMSO or indicated compounds at 0.1 μM and 1.0 μM for 18 hours.
WDR5 degraders were dissolved in DMSO and DMSO with no degraders was used as the control. 1×10^6 MV4;11 cells or 1×10^5 MIAPACA2 or 2×10^5 Hela cells were seeded in 2 mL medium for each well in 24-well plates.
And cells were collected at indicated timepoints: 1 h, 2 h, 4 h, 8 h, 16 h, and 24 h.

The structures appear in SMILES notation. “Also recorded” adds a separate entry of the source.

`Cc1ncsc1-c1ccc([C@H](C)NC(=O)[C@@H]2C[C@@H](O)CN2C(=O)[C@@H](NC(=O)CNC(=O)c2ccc(F)c(-c3ccc(N4C[C@@H](C)N(C)[C@@H](C)C4)c(NC(=O)c4c[nH]c(=O)cc4C(F)(F)F)c3)c2)C(C)(C)C)cc1` [XF067-67, N-(2′-fluoro-5′-((2-(((S)-1-((2S,4R)-4-hydroxy-2-(((S)-1-(4-(4-methylthiazol-5-yl)phenyl)ethyl)carbamoyl)pyrrolidin-1-yl)-3,3-dimethyl-1-oxobutan-2-yl)amino)-2-oxoethyl)carbamoyl)-4-((3S,5R)-3,4,5-trimethylpiperazin-1-yl)-[1,1′-biphenyl]-3-yl)-6-oxo-4-(trifluoromethyl)-1,6-dihydropyridine-3-carboxamide]: the “proliferation of MIAPACA2 cells” value with MIAPACA2 cells is on record as “significantly decreased the cell proliferation; also recorded: significantly reduced the proliferation of MIAPACA2 cells”. For the same compound, the “cell killing effect, rank among the 3 compounds” value in the test on MIAPACA2 cells (MIAPACA2 cells) was “the best cell killing effect among the 3 compounds”.

Regarding `Cc1ncsc1-c1ccc(CNC(=O)[C@@H]2C[C@@H](O)CN2C(=O)[C@@H](NC(=O)CCCCCCCCCNC(=O)c2ccc(-c3ccc(N4C[C@@H](C)N(C)[C@@H](C)C4)c(NC(=O)c4c[nH]c(=O)cc4C(F)(F)F)c3)c(F)c2)C(C)(C)C)cc1` [XF056-173, N-(2′-fluoro-4′-((10-(((S)-1-((2S,4R)-4-hydroxy-2-((4-(4-methylthiazol-5-yl)benzyl)carbamoyl)pyrrolidin-1-yl)-3,3-dimethyl-1-oxobutan-2-yl)amino)-10-oxodecyl)carbamoyl)-4-((3R,5S)-3,4,5-trimethylpiperazin-1-yl)-[1,1′-biphenyl]-3-yl)-6-oxo-4-(trifluoromethyl)-1,6-dihydropyridine-3-carboxamide], the “effective degradation of WDR5 in MV4;11 and/or MIAPACA2 cells” value (“effective degradation of WDR5” below) on WDR5 [1] is listed as “able to effectively degrade WDR5”. The “proliferation of MIAPACA2 cells” value with MIAPACA2 cells is “significantly decreased the cell proliferation; also recorded: significantly reduced the proliferation of MIAPACA2 cells”.

Turning to `CN1CCN(c2ccc(-c3cccc(CN4CCN(CCNC(=O)CCCCCCCNc5cccc6c5C(=O)N(C5CCC(=O)NC5=O)C6=O)CC4)c3)cc2NC(=O)c2c[nH]c(=O)cc2C(F)(F)F)CC1` (stereo not drawn) [XF048-140, N-(3′-((4-(2-(8-((2-(2,6-dioxopiperidin-3-yl)-1,3-dioxoisoindolin-4-yl)amino)octanamido)ethyl)piperazin-1-yl)methyl)-4-(4-methylpiperazin-1-yl)-[1,1′-biphenyl]-3-yl)-6-oxo-4-(trifluoromethyl)-1,6-dihydropyridine-3-carboxamide], the “effective degradation of WDR5” value on WDR5 [1] was “able to effectively degrade WDR5”. Moreover, the “reduction of WDR5 protein levels, concentration-dependent” value on WDR5 [2] (MIAPACA2 cells, 0.1, 0.5, 1, 5 and 10 μM, FIG. 5) is reported as “reduced WDR5 protein levels”.

`CN1CCN(c2ccc(-c3cccc(CN4CCN(CCNC(=O)CCOCCOCCNc5cccc6c5C(=O)N(C5CCC(=O)NC5=O)C6=O)CC4)c3)cc2NC(=O)c2c[nH]c(=O)cc2C(F)(F)F)CC1` (stereo not drawn) [XF048-142, N-(3′-((4-(2-(3-(2-(2-((2-(2,6-dioxopiperidin-3-yl)-1,3-dioxoisoindolin-4-yl)amino)ethoxy)ethoxy)propanamido)ethyl)piperazin-1-yl)methyl)-4-(4-methylpiperazin-1-yl)-[1,1′-biphenyl]-3-yl)-6-oxo-4-(trifluoromethyl)-1,6-dihydropyridine-3-carboxamide]: at WDR5 [3], the “reduction of WDR5 protein levels in a concentration- and time-dependent manner” value was “effective in reducing WDR5 protein levels”.

`Cc1ncsc1-c1ccc([C@H](C)NC(=O)[C@@H]2C[C@@H](O)CN2C(=O)[C@@H](NC(=O)CCCCCCCCCC(=O)NCCN2CCN(Cc3cccc(-c4ccc(N5CCN(C)CC5)c(NC(=O)c5c[nH]c(=O)cc5C(F)(F)F)c4)c3)CC2)C(C)(C)C)cc1` [XF050-166, N^1-((S)-1-((2S,4R)-4-hydroxy-2-(((S)-1-(4-(4-methylthiazol-5-yl)phenyl)ethyl)carbamoyl)pyrrolidin-1-yl)-3,3-dimethyl-1-oxobutan-2-yl)-N^11-(2-(4-((4′-(4-methylpiperazin-1-yl)-3′-(6-oxo-4-(trifluoromethyl)-1,6-dihydropyridine-3-carboxamido)-[1,1′-biphenyl]-3-yl)methyl)piperazin-1-yl)ethyl)undecanediamide]: the “effective degradation of WDR5” value on WDR5 [1] is “able to effectively degrade WDR5”. On WDR5 [2] (MIAPACA2 cells, 0.5 μM and 1.0 μM, FIG. 7), the WDR5 degradation effects entry was “better WDR5 degradation effects than XF048-132 and XF048-140”.

Regarding `Cc1ncsc1-c1ccc(CNC(=O)[C@@H]2C[C@@H](O)CN2C(=O)[C@@H](NC(=O)CNC(=O)c2ccc(F)c(-c3ccc(N4C[C@@H](C)N(C)[C@@H](C)C4)c(NC(=O)c4c[nH]c(=O)cc4C(F)(F)F)c3)c2)C(C)(C)C)cc1` [XF056-132, N-(2′-fluoro-5′-((2-(((S)-1-((2S,4R)-4-hydroxy-2-((4-(4-methylthiazol-5-yl)benzyl)carbamoyl)pyrrolidin-1-yl)-3,3-dimethyl-1-oxobutan-2-yl)amino)-2-oxoethyl)carbamoyl)-4-((3R,5S)-3,4,5-trimethylpiperazin-1-yl)-[1,1′-biphenyl]-3-yl)-6-oxo-4-(trifluoromethyl)-1,6-dihydropyridine-3-carboxamide], on WDR5 [1], the “effective degradation of WDR5” value is “able to effectively degrade WDR5”. Also, the “degradation of WDR5” value on WDR5 [2] (MIAPACA2 cells, 0.1 μM and 0.5 μM, FIG. 8A-8C) is “can effectively degrade WDR5 at 0.1 μM and 0.5 μM”. The “proliferation of MIAPACA2 cells” value in the test on MIAPACA2 cells is listed as “significantly decreased the cell proliferation; also recorded: significantly reduced the proliferation of MIAPACA2 cells”.

For the compound `CN1CCN(c2ccc(-c3cccc(CN4CCN(CCNC(=O)CCOCCOCCOCCOCCOCCNc5cccc6c5C(=O)N(C5CCC(=O)NC5=O)C6=O)CC4)c3)cc2NC(=O)c2c[nH]c(=O)cc2C(F)(F)F)CC1` (stereo not drawn) [XF048-145, N-(3′-((4-(1-((2-(2,6-dioxopiperidin-3-yl)-1,3-dioxoisoindolin-4-yl)amino)-18-oxo-3,6,9,12,15-pentaoxa-19-azahenicosan-21-yl)piperazin-1-yl)methyl)-4-(4-methylpiperazin-1-yl)-[1,1′-biphenyl]-3-yl)-6-oxo-4-(trifluoromethyl)-1,6-dihydropyridine-3-carboxamide], on WDR5 [3], the “reduction of WDR5 protein levels in a concentration- and time-dependent manner” value is listed as “effective in reducing WDR5 protein levels”.

On to `Cc1ncsc1-c1ccc(CNC(=O)[C@@H]2C[C@@H](O)CN2C(=O)[C@@H](NC(=O)COCCNC(=O)CCC(=O)N2CCN(c3ccc(-c4cc(NC(=O)c5c[nH]c(=O)cc5C(F)(F)F)c(N5C[C@@H](C)N(C)[C@@H](C)C5)cc4F)cn3)CC2)C(C)(C)C)cc1` [XF067-140, N-(4-fluoro-5-(6-(4-(4-((2-(2-(((S)-1-((2S,4R)-4-hydroxy-2-((4-(4-methylthiazol-5-yl)benzyl)carbamoyl)pyrrolidin-1-yl)-3,3-dimethyl-1-oxobutan-2-yl)amino)-2-oxoethoxy)ethyl)amino)-4-oxobutanoyl)piperazin-1-yl)pyridin-3-yl)-2-((3S,5R)-3,4,5-trimethylpiperazin-1-yl)phenyl)-6-oxo-4-(trifluoromethyl)-1,6-dihydropyridine-3-carboxamide], for which the “effective degradation of WDR5” value on WDR5 [1] is “able to effectively degrade WDR5”.

Take `Cc1ncsc1-c1ccc(CNC(=O)[C@@H]2C[C@@H](O)CN2C(=O)[C@@H](NC(=O)CCOCCOCCOCCOCCC(=O)N2CCN(c3ncc(-c4cc(NC(=O)c5ccc(F)cc5C(F)(F)F)c(N5C[C@@H](C)N(C)[C@@H](C)C5)cc4F)cn3)CC2)C(C)(C)C)cc1` [XF078-105, (2S,4R)-1-((S)-2-(tert-butyl)-19-(4-(5-(2-fluoro-5-(4-fluoro-2-(trifluoromethyl)benzamido)-4-((3S,5R)-3,4,5-trimethylpiperazin-1-yl)phenyl)pyrimidin-2-yl)piperazin-1-yl)-4,19-dioxo-7,10,13,16-tetraoxa-3-azanonadecanoyl)-4-hydroxy-N-(4-(4-methylthiazol-5-yl)benzyl)pyrrolidine-2-carboxamide]: the “effective degradation of WDR5” value on WDR5 [1] is “able to effectively degrade WDR5”.
